Test results taken from ChEMBL document CHEMBL5625235, “Discovery of X10g as a selective PROTAC degrader of Hsp90α protein for treating breast cancer” (Eur J Med Chem, 2023).
Active and inactive are the calls of the source. No cut-off for these calls is given here.

Key:
[1] = AUCall in rat at 15 mg/kg, ip administered as single dose and measured at 5 to 480 mins by LC-MS analysis; type: ADME, organism-based; conditions: in vivo, time 5-480 min
[2] = biological target: T1, Protein cereblon/Heat shock protein HSP 90-alpha (Homo sapiens, UniProt P07900+Q96SW2); test: Binding affinity to CRBN/HSP90alpha (unknown origin) assessed as ternary complex formation; type: protein assay
[3] = biological target: T1, Protein cereblon/Heat shock protein HSP 90-alpha; test: PROTAC activity at CRBN/HSP90alpha in human MCF7 cells assessed as induction of HSP90alpha degradation at 0.5 uM incubated for 8 hrs in presence of MLN4924 by Western blot analysis; type: cell-based
[4] = AUC(0 to infinity) in rat at 15 mg/kg, ip administered as single dose and measured at 5 to 480 mins by LC-MS analysis; type: ADME, organism-based; conditions: in vivo, time 5-480 min
[5] = Half-life in rat at 15 mg/kg, ip administered as single dose and measured at 5 to 480 mins by LC-MS analysis; type: ADME, organism-based; conditions: in vivo, time 5-480 min
[6] = biological target: T1, Protein cereblon/Heat shock protein HSP 90-alpha; test: PROTAC activity at CRBN/HSP90alpha in human MCF7 cells assessed as induction of HSP90alpha degradation by measuring maximal efficacy at 0.1 to 5 uM incubated for 8 hrs by Western blot analysis relative to control; type: cell-based; conditions: dose 0.1-5 µM
[7] = biological target: T1, Protein cereblon/Heat shock protein HSP 90-alpha; test: PROTAC activity at CRBN/HSP90alpha in human MCF7 cells assessed as induction of survivin degradation at 0.5 uM incubated for 8 hrs by Western blot analysis; type: cell-based
MDA-MB-231 = test: Antiproliferative activity against human MDA-MB-231 cells assessed as inhibition of cell proliferation incubated for 72 hrs by MTT assay; type: functional, cell-based; conditions: MDA-MB-231, 72 h
MX1 = test: Antiproliferative activity against human MX1 cells assessed as inhibition of cell proliferation incubated for 72 hrs by MTT assay; type: functional, cell-based; conditions: MX1, 72 h
[8] = biological target: T1, Protein cereblon/Heat shock protein HSP 90-alpha; test: PROTAC activity at CRBN/HSP90alpha in human MCF7 cells assessed as induction of HSP90alpha degradation at 0.5 uM incubated for 8 hrs in presence of MG132 by Western blot analysis; type: cell-based
[9] = biological target: T1, Protein cereblon/Heat shock protein HSP 90-alpha; test: PROTAC activity at CRBN/HSP90alpha in human MCF7 cells assessed as induction of HSP90alpha degradation incubated for 8 hrs by Western blot analysis; type: cell-based
[10] = Toxicity in BALB/c mouse implanted with mouse 4T1 cells assessed as mortality at 60 mg/kg, ip administered daily for 20 days; type: organism-based; conditions: in vivo, 480 h, time 20 day
[11] = biological target: T1, Protein cereblon/Heat shock protein HSP 90-alpha; test: PROTAC activity at CRBN/HSP90alpha in human MCF7 cells assessed as induction of HSP90alpha degradation at 0.5 uM incubated for 8 hrs in presence of pomalidomide by Western blot analysis; type: cell-based
[12] = biological target: T2, Protein cereblon/Heat shock protein HSP 90-beta (Homo sapiens) (UniProt P08238+Q96SW2); test: PROTAC activity at CRBN/HSP90beta in human MCF7 cells assessed as induction of CDK4 degradation at 0.5 uM incubated for 8 hrs by Western blot analysis; type: cell-based
[13] = biological target: T1, Protein cereblon/Heat shock protein HSP 90-alpha; test: PROTAC activity at CRBN/HSP90alpha in human MCF7 cells assessed as induction of HSP90alpha degradation at 0.5 uM incubated for 8 hrs by Western blot analysis; type: cell-based
[14] = biological target: T1, Protein cereblon/Heat shock protein HSP 90-alpha; test: PROTAC activity at CRBN/HSP90alpha in human MCF7 cells assessed as induction of HSP90alpha degradation by measuring maximal efficacy at high concentration incubated for 8 hrs by Western blot analysis; type: cell-based
MDA-MB-468 = test: Antiproliferative activity against human MDA-MB-468 cells assessed as inhibition of cell proliferation incubated for 72 hrs by MTT assay; type: functional, cell-based; conditions: MDA-MB-468, 72 h
[15] = biological target: T1, Protein cereblon/Heat shock protein HSP 90-alpha; test: PROTAC activity at CRBN/HSP90alpha in human MCF7 cells assessed as induction of HSP90alpha degradation at 0.5 uM incubated for 8 hrs in presence of AT13387 by Western blot analysis; type: cell-based
[16] = Cmax in rat at 15 mg/kg, ip administered as single dose and measured at 5 to 480 mins by LC-MS analysis; type: ADME, organism-based; conditions: in vivo, time 5-480 min
[17] = Tmax in rat at 15 mg/kg, ip administered as single dose and measured at 5 to 480 mins by LC-MS analysis; type: ADME, organism-based; conditions: in vivo, time 5-480 min
4T1 [18] = test: Antitumor activity against mouse 4T1 cells implanted in BALB/c mouse assessed as reduction in tumor weight at 60 mg/kg, ip administered daily for 20 days; type: functional, organism-based; conditions: time 20.0 day
4T1 [19] = test: Antitumor activity against mouse 4T1 cells implanted in BALB/c mouse assessed as tumor growth inhibition at 60 mg/kg, ip administered daily for 20 days relative to control; type: functional; conditions: 4T1, 480 h, time 20 day, read-out: TGI
[20] = Toxicity in BALB/c mouse implanted with mouse 4T1 cells assessed as effect on body weight at 60 mg/kg, ip administered daily for 20 days; type: organism-based; conditions: in vivo, 480 h, time 20 day
[21] = biological target: T2, Protein cereblon/Heat shock protein HSP 90-beta (Homo sapiens); test: PROTAC activity at CRBN/HSP90beta in human MCF7 cells assessed as induction of HSP90beta degradation at 0.5 uM incubated for 8 hrs by Western blot analysis; type: cell-based
MCF7 = test: Antiproliferative activity against human MCF7 cells assessed as inhibition of cell proliferation incubated for 72 hrs by MTT assay; type: functional, cell-based; conditions: MCF7, 72 h

SMILES: CC(C)c1cc(C(=O)N2Cc3ccc(CN4CCN(CCCCCCC(=O)Nc5cccc6c5C(=O)N(C5CCC(=O)NC5=O)C6=O)CC4)cc3C2)ccc1O (stereo not given)
- AUC [1]: 703 ng·h/mL
- Activity [2]: Active
- Activity [3]: inactive
- AUC(0-inf) [4]: 758 ng·h/mL
- half-life [5]: 2.5 h
- Emax [6]: 66.4%
- Activity [7]: Active
- IC50 (MDA-MB-231): 51.5 µM
- IC50 (MX1): 12 µM
- Activity [8]: inactive
- DC50 [9]: 0.295 µM
- Activity [10]: Non-Toxic
- Activity [11]: inactive
- Activity [12]: inactive
- Activity [13]: Active
- Activity [14]: inactive
- IC50 (MDA-MB-468): 16.5 µM
- Activity [15]: inactive
- Cmax [16]: 302 ng/mL
- Tmax [17]: 0.6 h
- Activity (4T1 [18]): Active
- inhibition in vivo at 60 mg/kg (4T1 [19]): 54%
- Activity [20]: Non-Toxic
- Activity [21]: inactive
- IC50 (MCF7): 8.93 µM
